Reference: US11377442B2, “Small molecule agonists and antagonists of NR2F6 activity” (ZANDER THERAPEUTICS, INC., priority 2016, dated 2022)
Where two headings read alike, the source gives them in different places. Blank lines part the entries; values can stand above or below the compound they belong to.

Target: T1, NR2F6 (Homo sapiens, UniProt P10588)
T1 construct: expressed in transfected cells; also transient transfection
T1 sequence (P10588 1-404): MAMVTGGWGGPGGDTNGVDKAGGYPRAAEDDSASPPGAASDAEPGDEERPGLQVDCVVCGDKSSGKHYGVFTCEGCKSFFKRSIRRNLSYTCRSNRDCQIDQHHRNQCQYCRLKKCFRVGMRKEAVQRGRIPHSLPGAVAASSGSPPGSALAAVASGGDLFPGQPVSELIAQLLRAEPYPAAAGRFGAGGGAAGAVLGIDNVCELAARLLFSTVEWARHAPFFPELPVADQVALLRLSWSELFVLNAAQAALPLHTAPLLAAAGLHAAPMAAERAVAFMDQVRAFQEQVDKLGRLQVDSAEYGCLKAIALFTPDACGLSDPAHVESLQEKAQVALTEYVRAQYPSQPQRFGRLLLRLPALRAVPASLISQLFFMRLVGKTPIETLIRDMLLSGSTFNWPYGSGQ
Experiment: NR2F6 agonist screening, Firefly signal cmpd/DMSO
Format: cell-based
Parameters: Firefly NR2F6 full length, cmpd/DMSO (mean) / Firefly F4, cmpd/DMSO (mean): unit of the concentration uncertain
Settings: for Firefly/Renilla (NR2F6 stable, clone F4): ratio Firefly/Renilla; for Firefly, NR2F6 stable (clone F4)/pGL4: ratio of Firefly in NR2F6 stable clone F4 to pGL4

[1] = C11 analogs follow set (Tables 2-10), repeat 1
[2] = C11 analogs follow set (Tables 2-10), repeat 2
[3] = Concentration 2 (unit uncertain)
[4] = Concentration 10 (unit uncertain)
[5] = Concentration 40 (unit uncertain)

- Firefly, cmpd/DMSO repeat 1 [1]: 1.1
- Firefly, cmpd/DMSO repeat 2 [2]: 0.8
Structure (SMILES): COc1ccc2cc(S(=O)(=O)c3ccccc3)c(=O)oc2c1 [Compound C264]

- Firefly, cmpd/DMSO (mean) (mean of repeats): 12.8
- Firefly, cmpd repeat 1 (raw signal, repeat 1): 784
- Firefly, cmpd repeat 2 (raw signal, repeat 2): 644
- Firefly, cmpd/DMSO repeat 1 (repeat 1): 14.1
- Firefly, cmpd/DMSO repeat 2 (repeat 2): 11.7
Structure (SMILES): CCOC(=O)c1cnc2c(C)cc(C)cc2c1NCCCN(C)C [Compound D28]

- Firefly F4, cmpd/DMSO (mean) [3]: 0.7
- Firefly NR2F6 full length, cmpd/DMSO (mean) [3]: 1.0
- Firefly F4, cmpd/DMSO (mean) [4]: 0.9
- Firefly NR2F6 full length, cmpd/DMSO (mean) [4]: 1.3
- Firefly F4, cmpd/DMSO (mean) [5]: 0.7
- Firefly NR2F6 full length, cmpd/DMSO (mean) [5]: 1.4
Structure (SMILES): Cc1cccn2cc(CNS(=O)(=O)c3ccccc3F)nc12 [Compound E52]

- Firefly, cmpd/DMSO repeat 1 [1]: 2.6
- Firefly, cmpd/DMSO repeat 2 [2]: 2.5
Structure (SMILES): COc1ccc2cc(S(=O)(=O)c3ccc(F)c(Cl)c3)c(=O)oc2c1 [Compound C275]

- Firefly, cmpd/DMSO (mean): 1.1
Structure (SMILES): COc1ccccc1-c1noc(Cn2nccc(C)c2=O)n1 [Compound Z151]

- Firefly, cmpd/DMSO (mean): 1.1
Structure (SMILES): COc1ccc(-c2noc(Cn3ncc(Cl)cc3=O)n2)cc1 [Compound Z142]

- Firefly, cmpd/DMSO (mean): 1.2
Structure (SMILES): COc1ccc(-c2noc(Cn3ncc(C)c(C)c3=O)n2)cc1 [Compound Z140]

- Firefly, cmpd/DMSO repeat 1 (Table 11, repeat 1): 2.2
- Firefly, cmpd/DMSO repeat 2 (Table 11, repeat 2): 3.2
Structure (SMILES): COc1cc(Br)cc2cc(S(=O)(=O)c3ccc(F)c(C)c3)c(=O)oc12 [Compound C298]

- Firefly, cmpd/DMSO repeat 1 (Table 11, repeat 1): 4.0
- Firefly, cmpd/DMSO repeat 2 (Table 11, repeat 2): 4.6
Structure (SMILES): COc1cc(Br)cc2cc(S(=O)(=O)c3ccc(F)cc3)c(=O)oc12 [Compound C295]

- Firefly F4, cmpd/DMSO (mean) [3]: 1.0
- Firefly NR2F6 full length, cmpd/DMSO (mean) [3]: 1.0
- Firefly F4, cmpd/DMSO (mean) [4]: 0.9
- Firefly NR2F6 full length, cmpd/DMSO (mean) [4]: 1.1
- Firefly F4, cmpd/DMSO (mean) [5]: 0.7
- Firefly NR2F6 full length, cmpd/DMSO (mean) [5]: 1.1
Structure (SMILES): Cc1ccc(S(=O)(=O)NCc2cn3ccccc3n2)c(C)c1 [Compound E24]

The remaining lines, values behind:

Structure (SMILES): COC(=O)c1ccc2oc(=O)c(S(=O)(=O)c3ccc(OC)cc3)cc2c1 [Compound C12]
- Firefly, cmpd/DMSO repeat 1 [1]: 20.0
- Firefly, cmpd/DMSO repeat 2 [2]: 16.7
- Firefly/Renilla (NR2F6 stable, clone F4) (Table 12): 2.6
- Firefly, NR2F6 stable (clone F4)/pGL4 (Table 12): 6.6
- Firefly, cmpd/DMSO repeat 1 (Table 12, repeat 1): 20.0
- Firefly, cmpd/DMSO repeat 2 (Table 12, repeat 2): 16.7

Structure (SMILES): Cc1ccc(NC(=O)c2ccc3oc(=O)c(S(=O)(=O)c4ccccc4)cc3c2)cc1C [Compound C167]
- Firefly, cmpd/DMSO repeat 1 [1]: 1.0
- Firefly, cmpd/DMSO repeat 2 [2]: 0.7

Structure (SMILES): CCOc1cccc2cc(S(=O)(=O)c3ccc(F)cc3)c(=O)oc12 [Compound C237]
- Firefly, cmpd/DMSO repeat 1 (Table 9, repeat 1): 3.5
- Firefly, cmpd/DMSO repeat 2 (Table 9, repeat 2): 2.9

Structure (SMILES): COc1ccc2oc(=O)c(S(=O)(=O)c3ccc(C(C)(C)C)cc3)cc2c1 [Compound C209]
- Firefly, cmpd/DMSO repeat 1 [1]: 3.1
- Firefly, cmpd/DMSO repeat 2 [2]: 4.2
- Firefly/Renilla (NR2F6 stable, clone F4) (Table 13): 3.6
- Firefly, NR2F6 stable (clone F4)/pGL4 (Table 13): 3.1
- Firefly, cmpd/DMSO repeat 1 (Table 13, repeat 1): 3.1
- Firefly, cmpd/DMSO repeat 2 (Table 13, repeat 2): 4.2

Structure (SMILES): Cc1ccc(S(=O)(=O)c2cc3cc([N+](=O)[O-])ccc3oc2=O)cc1 [Compound C211]
- Firefly, cmpd/DMSO repeat 1 [1]: 5.8
- Firefly, cmpd/DMSO repeat 2 [2]: 17.7

Structure (SMILES): N#Cc1cccc(S(=O)(=O)c2cc3cc(Br)ccc3oc2=O)c1 [Compound C196]
- Firefly, cmpd/DMSO repeat 1 [1]: 3.8
- Firefly, cmpd/DMSO repeat 2 [2]: 3.4

Structure (SMILES): N#Cc1cccc(S(=O)(=O)c2cc3cc(Cl)ccc3oc2=O)c1 [Compound C195]
- Firefly, cmpd/DMSO repeat 1 [1]: 38.7
- Firefly, cmpd/DMSO repeat 2 [2]: 29.4
- Firefly/Renilla (NR2F6 stable, clone F4) (Table 12): 2.1
- Firefly, NR2F6 stable (clone F4)/pGL4 (Table 12): 7.7
- Firefly, cmpd/DMSO repeat 1 (Table 12, repeat 1): 38.7
- Firefly, cmpd/DMSO repeat 2 (Table 12, repeat 2): 29.4

Structure (SMILES): O=C(NCc1ccc(F)cc1)c1ccc2oc(=O)c(S(=O)(=O)c3ccc(F)cc3)cc2c1 [Compound C118]
- Firefly, cmpd/DMSO repeat 1 [1]: 13.5
- Firefly, cmpd/DMSO repeat 2 [2]: 17.1
- Firefly/Renilla (NR2F6 stable, clone F4) (Table 13): 1.1
- Firefly, NR2F6 stable (clone F4)/pGL4 (Table 13): 5.9
- Firefly, cmpd/DMSO repeat 1 (Table 13, repeat 1): 13.5
- Firefly, cmpd/DMSO repeat 2 (Table 13, repeat 2): 17.1

Structure (SMILES): COC(=O)c1ccc2oc(=O)c(S(=O)(=O)c3ccc(F)cc3)cc2c1 [Compound C14]
- Firefly, cmpd/DMSO repeat 1 [1]: 22.3
- Firefly, cmpd/DMSO repeat 2 [2]: 20.0
- Firefly/Renilla (NR2F6 stable, clone F4) (Table 13): 1.5
- Firefly, NR2F6 stable (clone F4)/pGL4 (Table 13): 7.6
- Firefly, cmpd/DMSO repeat 1 (Table 13, repeat 1): 22.3
- Firefly, cmpd/DMSO repeat 2 (Table 13, repeat 2): 20.0

Structure (SMILES): COc1ccc(S(=O)(=O)c2cc3cc(Br)ccc3oc2=O)cc1 [Compound C199]
- Firefly, cmpd/DMSO repeat 1 [1]: 19.3
- Firefly, cmpd/DMSO repeat 2 [2]: 16.1

Structure (SMILES): COc1cccc2cc(S(=O)(=O)c3ccc(C)c(C)c3)c(=O)oc12 [Compound C242]
- Firefly, cmpd/DMSO repeat 1 (Table 9, repeat 1): 1.1
- Firefly, cmpd/DMSO repeat 2 (Table 9, repeat 2): 1.1

Structure (SMILES): O=C(NCCc1ccccc1)c1ccc2oc(=O)c(S(=O)(=O)c3ccccc3)cc2c1 [Compound C111]
- Firefly, cmpd/DMSO repeat 1 [1]: 29.8
- Firefly, cmpd/DMSO repeat 2 [2]: 35.9
- Firefly/Renilla (NR2F6 stable, clone F4) (Table 13): 1.1
- Firefly, NR2F6 stable (clone F4)/pGL4 (Table 13): 8.7
- Firefly, cmpd/DMSO repeat 1 (Table 13, repeat 1): 29.8
- Firefly, cmpd/DMSO repeat 2 (Table 13, repeat 2): 35.9

Structure (SMILES): COc1ccc2cc(S(=O)(=O)c3cccc(C#N)c3)c(=O)oc2c1 [Compound C263]
- Firefly, cmpd/DMSO repeat 1 [1]: 1.8
- Firefly, cmpd/DMSO repeat 2 [2]: 1.7

Structure (SMILES): Cc1ccc(S(=O)(=O)c2cc3cc(C(=O)Nc4cccc(C)c4C)ccc3oc2=O)cc1 [Compound C134]
- Firefly, cmpd/DMSO repeat 1 [1]: 38.1
- Firefly, cmpd/DMSO repeat 2 [2]: 31.9
- Firefly/Renilla (NR2F6 stable, clone F4) (Table 12): 1.8
- Firefly, NR2F6 stable (clone F4)/pGL4 (Table 12): 7.7
- Firefly, cmpd/DMSO repeat 1 (Table 12, repeat 1): 38.1
- Firefly, cmpd/DMSO repeat 2 (Table 12, repeat 2): 31.9

Structure (SMILES): COc1cccc(S(=O)(=O)c2cc3cc(Br)ccc3oc2=O)c1 [Compound C185]
- Firefly, cmpd/DMSO repeat 1 [1]: 2.6
- Firefly, cmpd/DMSO repeat 2 [2]: 2.4

Structure (SMILES): COc1ccc(NC(=O)c2ccc3oc(=O)c(S(=O)(=O)c4ccc(C)cc4)cc3c2)cc1OC [Compound C121]
- Firefly, cmpd/DMSO repeat 1 [1]: 9.0
- Firefly, cmpd/DMSO repeat 2 [2]: 21.5

Structure (SMILES): COc1ccc(S(=O)(=O)c2cc3cccc(OC)c3oc2=O)cc1 [Compound C232]
- Firefly, cmpd/DMSO repeat 1 (Table 9, repeat 1): 1.0
- Firefly, cmpd/DMSO repeat 2 (Table 9, repeat 2): 0.9

Structure (SMILES): COc1ccc2oc(=O)c(S(=O)(=O)c3ccccc3)cc2c1 [Compound C206]
- Firefly, cmpd/DMSO repeat 1 [1]: 2.1
- Firefly, cmpd/DMSO repeat 2 [2]: 1.8

Structure (SMILES): CCOc1cccc2cc(S(=O)(=O)c3ccc(F)c(C)c3)c(=O)oc12 [Compound C258]
- Firefly, cmpd/DMSO repeat 1 (Table 9, repeat 1): 1.5
- Firefly, cmpd/DMSO repeat 2 (Table 9, repeat 2): 1.8

Structure (SMILES): COc1ccccc1NC(=O)c1ccc2oc(=O)c(S(=O)(=O)c3ccc(F)cc3)cc2c1 [Compound C124]
- Firefly, cmpd/DMSO repeat 1 [1]: 25.5
- Firefly, cmpd/DMSO repeat 2 [2]: 29.8

Structure (SMILES): Cc1ccc(NC(=O)c2ccc3oc(=O)c(S(=O)(=O)c4ccc(F)cc4)cc3c2)cc1 [Compound C163]
- Firefly, cmpd/DMSO repeat 1 [1]: 2.0
- Firefly, cmpd/DMSO repeat 2 [2]: 5.2

Structure (SMILES): O=C(Nc1cccc(Cl)c1)c1ccc2oc(=O)c(S(=O)(=O)c3ccc(F)cc3)cc2c1 [Compound C128]
- Firefly, cmpd/DMSO repeat 1 [1]: 1.7
- Firefly, cmpd/DMSO repeat 2 [2]: 5.2

Structure (SMILES): COc1cccc2cc(S(=O)(=O)c3ccc(C)cc3)c(=O)oc12 [Compound C231]
- Firefly, cmpd/DMSO repeat 1 (Table 9, repeat 1): 0.7
- Firefly, cmpd/DMSO repeat 2 (Table 9, repeat 2): 0.9
